Results from ChEMBL document CHEMBL1147361, “Microbial transformation of L-696,474, a novel cytochalasin as an inhibitor of HIV-1 protease” (J Nat Prod, 1993).

biological target: Protease (Human immunodeficiency virus 1, UniProt Q9YQ12); test: Inhibition of HIV1 protease
Sequence (Q9YQ12 whole entry): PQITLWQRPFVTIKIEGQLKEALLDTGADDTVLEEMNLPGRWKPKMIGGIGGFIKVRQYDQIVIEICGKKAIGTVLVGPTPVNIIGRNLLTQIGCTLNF

Compound | IC50
C=C1[C@@H](C)[C@H]2[C@H](Cc3cccc(O)c3)NC(=O)[C@]23[C@H](OC(C)=O)/C=C/[C@@H](C)C[C@@](O)(CO)C/C=C/[C@H]3[C@@H]1O | > 50 µM
C=C1[C@@H](C)[C@H]2[C@H](Cc3ccccc3)NC(=O)[C@]23[C@H](OC(C)=O)/C=C/[C@@H](C)C[C@@H](CO)C/C=C/[C@H]3[C@@H]1O | 22 µM
C=C1[C@@H](C)[C@H]2[C@H](Cc3ccc(O)c(O)c3)NC(=O)[C@]23[C@H](OC(C)=O)/C=C/[C@@H](C)C[C@@H](CO)C/C=C/[C@H]3[C@@H]1O | > 50 µM
C=C1[C@@H](C)[C@H]2[C@H](Cc3ccccc3)NC(=O)[C@]23[C@H](OC(C)=O)/C=C/[C@@H](C)C[C@@H](C)C/C=C/[C@H]3[C@@H]1O | 3 µM
C=C1[C@@H](C)[C@H]2[C@H](Cc3ccc(O)cc3)NC(=O)[C@]23[C@H](OC(C)=O)/C=C/[C@@H](C)C[C@@H](CO)C/C=C/[C@H]3[C@@H]1O | 35 µM
C=C1[C@@H](C)[C@H]2[C@H](Cc3ccccc3)NC(=O)[C@]23[C@H](OC(C)=O)/C=C/[C@@H](C)C[C@@](O)(CO)C/C=C/[C@H]3[C@@H]1O | 45 µM
C=C1[C@@H](C)[C@H]2[C@H](Cc3cccc(O)c3)NC(=O)[C@]23[C@H](OC(C)=O)/C=C/[C@@H](C)C[C@@H](CO)C/C=C/[C@H]3[C@@H]1O | 38 µM
